{"source": "patent US20250319110A1", "about": "“SURFACE CALR CHEMICAL INDUCERS” (THE CHILDREN'S MEDICAL CENTER CORPORATION, priority 2022, published 2025)", "note": "Counter-ions that a name gives are not always drawn. Where a SMILES comes first, the peptide text is derived from it. The star is where a group is joined. Cbz = O=C(OCc1ccccc1)*"}
{"test_system": "reactive oxygen species (ROS)", "assay": "ROS production by CALR agonists (ROS+ / ROS− classification of screen hits)", "assay_type": "cell-based, human", "settings": "CALR agonists that do not stimulate ROS production or only to negligible levels", "method": "(§1) To systematically evaluate pathways triggering surface CALR, a panel of 1200 bioactive small molecules in human cells were screened. Surface CALR expression was evaluated by imaging a CALR-antibody coupled with a fluorophore and by a SPLIT-TURBO ID construct targeting the association of […] (Cadherin 2), a membrane protein, and CALR. 93 out of 1200 compounds screened increased surface CALR with a robust dosage response. Chemical annotation further supported that ROS+ drugs were associated with FOXO1A and oxidative stress, while the ROS− drugs were associated with G protein-coupled receptor signaling and cellular calcium ion homeostasis. In vivo ROS− drugs induced macrophage-stem cell interaction and grooming behavior, while ROS+ drugs enhanced the macrophage-stem cell interaction, but not grooming. Collectively, the work described herein has identified ROS as a signal that upregulates surface CALR and promotes macrophage-stem cell interactions, safeguarding the development of stem cells that are stressed or damaged.\n(§2) As described in the examples herein, some CALR agonists do stimulate reactive oxygen species (ROS) production; or stimulate ROS production to statistically significant levels. This group of CALR agonists are referred to herein as “ROS+ CALR agonists.” ROS+ CALR agonists include Ibudilast; zaprinast; FK-520; AG1478; bongkrekic acid; GW9508; fusidic acid; beta-lapachone; fusaric acid; fenspiride; zardaverine; docosahexaenoic acid, loxoprofen; AG1480; flufenamic acid; and MG-132.\n(§3) This group of CALR agonists are referred to herein as “ROS− CALR agonists.” ROS-CALR agonists include DL-threo-1-Phenyl-2-palmitoylamino-3-morpholino-1-propanol; cambinol; ganciclovir; 8-bromo-GMP; arvanil; thiocitrulline; and isoguvacine. In some embodiments, an at least one ROS− CALR agonist can be selected from the group consisting of: DL-threo-1-Phenyl-2-palmitoylamino-3-morpholino-1-propanol; ganciclovir; 8-bromo-GMP; arvanil; thiocitrulline; and isoguvacine.\n(§4) A chemical screen was conducted to identify surface CALR inducers in a ROS-associated and a ROS-independent manner (FIG. 4). Hits from the screen was validated in vivo as CALR inducers (FIGS. 5A-5B). ROS− drugs tended to induce macrophage-stem cell interaction and proliferation. ROS+ drugs tended to promote dooming (FIGS. 6A-6C)."}
{"smiles": "CCCCCCCCCCCCCCCC(=O)N[C@H](CN1CCOCC1)[C@H](O)c1ccccc1", "note": "(racemic) [DL-threo-1-Phenyl-2-palmitoylamino-3-morpholino-1-propanol]", "ROS production class of CALR agonist": "ROS−"}
{"smiles": "Nc1nc2c(nc(Br)n2[C@@H]2O[C@H](COP(=O)(O)O)[C@@H](O)[C@H]2O)c(=O)[nH]1", "note": "[8-bromo-GMP, 8-bromo-guanosine monophosphate]", "ROS production class of CALR agonist": "ROS−"}
{"smiles": "CCCCC/C=C\\C/C=C\\C/C=C\\C/C=C\\CCCC(=O)NCc1ccc(O)c(OC)c1", "note": "[arvanil, N-vanillylarachidonamide]", "ROS production class of CALR agonist": "ROS−"}
{"smiles": "O=c1[nH]c(=S)[nH]c(-c2ccccc2)c1Cc1c(O)ccc2ccccc12", "note": "[cambinol, 5-[(2-hydroxynaphthalen-1-yl)methyl]-6-phenyl-2-sulfanylidene-1H-pyrimidin-4-one]", "ROS production class of CALR agonist": "ROS−"}
{"smiles": "Nc1nc(O)c2ncn(COC(CO)CO)c2n1", "note": "[ganciclovir, 2-Nor-2′-deoxyguanosine]", "ROS production class of CALR agonist": "ROS−"}
{"smiles": "O=C(O)C1=CCNCC1", "note": "[isoguvacine, 1,2,3,6-tetrahydropyridine-4-carboxylic acid]", "ROS production class of CALR agonist": "ROS−"}
{"smiles": "CSC(=N)NCCC[C@H](N)C(=O)O.Cl.Cl", "note": "[thiocitrulline, N^5-[imino(methylthio)methyl]-L-ornithine, dihydrochloride]", "ROS production class of CALR agonist": "ROS−"}
{"test_system": "reactive oxygen species (ROS)", "assay": "ROS production by CALR agonists (ROS+ / ROS− classification of screen hits)", "assay_type": "cell-based, human", "settings": "CALR agonists that stimulate ROS production", "method": "as §1, §2, §3, §4"}
{"smiles": "CC(C(=O)O)c1ccc(CC2CCCC2=O)cc1", "note": "(racemic) [loxoprofen, (RS)-2-{4-[(2-oxocyclopentyl)methyl]phenyl}propanoic acid]", "ROS production class of CALR agonist": "ROS+"}
{"smiles": "COc1cc2ncnc(Nc3cccc(Cl)c3)c2cc1OC", "note": "[AG1478, N-(3-chlorophenyl)-6,7-dimethoxyquinazolin-4-amine]", "ROS production class of CALR agonist": "ROS+"}
{"smiles": "CC[C@@H]1/C=C(\\C)C[C@H](C)C[C@H](OC)[C@H]2O[C@@](O)(C(=O)C(=O)N3CCCC[C@H]3C(=O)O[C@H](/C(C)=C/[C@@H]3CC[C@@H](O)[C@H](OC)C3)[C@H](C)[C@@H](O)CC1=O)[C@H](C)C[C@@H]2OC", "note": "[FK-520, ascomycin]", "ROS production class of CALR agonist": "ROS+"}
{"smiles": "O=C(O)CCc1ccc(NCc2cccc(Oc3ccccc3)c2)cc1", "note": "[GW9508, 4-[[(3-phenoxyphenyl)methyl]amino]-benzenepropanoic acid]", "ROS production class of CALR agonist": "ROS+"}
{"smiles": "CC(C)C(=O)c1c(C(C)C)nn2ccccc12", "note": "[Ibudilast, 2-methyl-1-(2-propan-2-ylpyrazolo[1,5-a]pyridin-3-yl)propan-1-one]", "ROS production class of CALR agonist": "ROS+"}
{"smiles": "CC(C)C[C@@H](C=O)NC(=O)[C@H](CC(C)C)NC(=O)[C@H](CC(C)C)NC(=O)OCc1ccccc1", "note": "[MG-132, benzyl N-[(2S)-4-methyl-1-[[(2S)-4-methyl-1-[[(2S)-4-methyl-1-oxopentan-2-yl]aamino]-1-oxopentan-2-yl]amino]-1-oxopentan-2-yl]carbamate] (Cbz-Leu-Leu-Leu-aldehyde)", "ROS production class of CALR agonist": "ROS+"}
{"smiles": "CC1(C)CCC2=C(O1)c1ccccc1C(=O)C2=O", "note": "[beta-lapachone, 2,2-dimethyl-3,4-dihydrobenzo[h]chromene-5,6-dione]", "ROS production class of CALR agonist": "ROS+"}
{"smiles": "CO[C@H](C/C=C\\C=C\\CC/C=C/C[C@H](C)/C=C/C(=C\\C(=O)O)CC(=O)O)/C(C)=C\\C=C(/C)C(=O)O", "note": "[bongkrekic acid, (2E,4Z,6R,8Z,10E,14E,17S,18E,20Z)-20-(carboxymethyl)-6-methoxy-2,5,17-trimethyldocosa-2,4,8,10,14,18,20-heptaenedioic acid]", "ROS production class of CALR agonist": "ROS+"}
{"smiles": "CC/C=C\\C/C=C\\C/C=C\\C/C=C\\C/C=C\\C/C=C\\CCC(=O)O", "note": "[docosahexaenoic acid]", "ROS production class of CALR agonist": "ROS+"}
{"smiles": "O=C1NCC2(CCN(CCc3ccccc3)CC2)O1", "note": "[fenspiride, 8-(2-phenylethy)-1-oxa-3,8-diazaspiro[4.5]decan-2-one, monohydrochloride]", "ROS production class of CALR agonist": "ROS+"}
{"smiles": "O=C(O)c1ccccc1Nc1cccc(C(F)(F)F)c1", "note": "[flufenamic acid, 2-[3-(trifluoromethyl)anilino]benzoic acid]", "ROS production class of CALR agonist": "ROS+"}
{"smiles": "CCCCc1ccc(C(=O)O)nc1", "note": "[fusaric acid]", "ROS production class of CALR agonist": "ROS+"}
{"smiles": "CC(=O)O[C@H]1C[C@@]2(C)[C@@H](C[C@@H](O)[C@H]3[C@@]4(C)CC[C@@H](O)[C@@H](C)[C@@H]4CC[C@@]32C)/C1=C(\\CCC=C(C)C)C(=O)O", "note": "[fusidic acid]", "ROS production class of CALR agonist": "ROS+"}
{"smiles": "CCCOc1ccccc1-c1nc2n[nH]nc2c(=O)[nH]1", "note": "[zaprinast, 5-(2-propoxyphenyl)-2,6-dihydrotriazolo[4,5-d]pyrimidin-7-one]", "ROS production class of CALR agonist": "ROS+"}
{"smiles": "COc1cc(-c2ccc(=O)[nH]n2)ccc1OC(F)F", "note": "[zardaverine, 6-[4-(difluoromethoxy)-3-methoxyphenyl]-3(2H)-pyridazinone]", "ROS production class of CALR agonist": "ROS+"}
